From ChEMBL document CHEMBL2069281, “2-Phenylamino-6-cyano-1H-benzimidazole-based isoform selective casein kinase 1 gamma (CK1γ) inhibitors” (Bioorg Med Chem Lett, 2012)

Test: Clearance in rat at […], iv
Assay type: ADME, organism-based
Set-up: dose 0.58 mg/kg, route intravenous
Details: in vivo

CC(C)(C)c1ccc(Nc2nc3ccc(C#N)cc3[nH]2)cc1
clearance: 108 mL/min/kg
